Reference: PMC12455570 (2025)

Test system: FAM-(CUG)10-BHQ (RNA, repeat) GCGCUGCUGCUGCUGCUGCUGAAAAGCUGCUGCUGCUGCUGCGC
Assay: FAM/BHQ fluorescence thermal melting
Conditions: 5 μM compound

ΔTm: 3.1 ± 0.7 °C
Compound: CC1CCCn2cc(-c3cccc(NC(=O)CCCCCCNCCCCNCCCCCCC(=O)Nc4cccc(-c5cn6c(n5)C(C)CCC6)c4)c3)nc21 (stereo not shown)
